In series [1] the test system is HBV mutant rtL180M. Kind of series: Intracellular HBV DNA replication assay, transient transfection, rtL180M. The series is classed as cell-based. To be noted: Hepatitis B virus, 96 h.
The test system of series [2] is HBV mutant rtM204V. Kind of series: Intracellular HBV DNA replication assay, transient transfection, rtM204V. To be noted: Hepatitis B virus, 96 h. It is filed as cell-based.
Series [3] deals with HBV WT. The series is described as follows: Intracellular HBV DNA replication assay, transient transfection, WT. It is filed as cell-based. As to conditions: Hepatitis B virus, 96 h.
Series [4] can be described thus: Cytotoxicity by neutral red dye uptake in 2.2.15 cells. As to conditions: human, 2.2.15 cells (confluent cultures, HBV-replicating). It is filed as cell-based.
The test system of series [5] is HBV mutant rtM204I. The series is described as follows: Intracellular HBV DNA replication assay, transient transfection, rtM204I. It is filed as cell-based. As to conditions: Hepatitis B virus, 96 h.
Series [6] relates to HCV RNA replicon. The series is described as follows: HCV RNA replicon assay in Huh7 ET cells. The series is classed as cell-based. As to conditions: in comparison to the parent compound 2.
Series [7] deals with Huh7 ET cells.
For series [8], the system named is 2.2.15 cells. Kind of series: Cytotoxicity by neutral red dye uptake in 2.2.15 cells. As to conditions: read-out: Cytotoxicity IC50; 2.2.15 cells, neutral red dye uptake. It is filed as cell-based.
Series [9] relates to wild type HBV. Kind of series: HBV antiviral assay in 2.2.15 cells, HBV DNA by quantitative blot hybridization. It is filed as cell-based. As to conditions: read-out: Anti-HCV activity EC50(µM) virion, extracellular virion HBV DNA, nine consecutive daily doses.

A word on the EC50: it is the concentration needed to bring the measured effect to its halfway point. In general, IC50 refers to the concentration at which inhibition is half-maximal.

On to `C#Cc1cn([C@@H]2C=C(CO)[C@@H](O)[C@H]2O)c2ncnc(N)c12` [Compound 24, (-)-(1R, 2S, 3R)-4-Amino-5-ethynyl-7-[2,3-dihydroxy-4-hydroxymethyl-4-cyclopenten-1-yl]-7H-pyrrolo[2,3-d]pyrimidine], for which the EC50 in [1] is 2 µM; in series [2], 2.1 µM; in series [3] it was 2.5 µM; in series [5], 3 µM. Further, in series [4], the IC50 at 9 days is > 300 µM.

Regarding `Nc1ncnc2c1c(F)cn2[C@@H]1C=C(CO)[C@@H](O)[C@H]1O` [Compound 12, (-)-(1R, 2S, 3R)-4-Amino-5-fluoro-7-[2,3-dihydroxy-4-hydroxymethyl-4-cyclopenten-1-yl]-7H-pyrrolo[2,3-d]pyrimidine], in [6], the “anti-HCV activity (in words)” value is given as “devoid of anti-HCV activity”.

Turning to `Nc1ncnc2c1c(I)cn2[C@@H]1C=C(CO)[C@@H](O)[C@H]1O` [Compound 15, (-)-(1R, 2S, 3R)-4-Amino-5-iodo-7-[2,3-dihydroxy-4-hydroxymethyl-4-cyclopenten-1-yl] -7H-pyrrolo[2,3-d] pyrimidine], the IC50 at 9 days in series [4] is > 300 µM.

`C=Cc1cn([C@@H]2C=C(CO)[C@@H](O)[C@H]2O)c2ncnc(N)c12` [Compound 22, (-)-(1R, 2S, 3R)-4-Amino-5-ethenyl-7-[2,3-dihydroxy-4-hydroxymethyl-4-cyclopenten-1-yl]-7H-pyrrolo[2,3-d]pyrimidine]: the concentration for half-maximal inhibition (IC50) at 9 days in [4] is > 300 µM.

Regarding `Nc1ccn([C@@H]2CS[C@H](CO)O2)c(=O)n1` [Compound 3TC, lamivudine, reference compound], the half-inhibitory concentration (IC50) at 9 days in series [4] was > 2000 µM.

For the compound “4-amino-7-(2,3-dihydroxy-4-hydroxymethyl-4-cyclopenten-1-yl)-7H-pyrrolo[2,3-d]pyrimidine [Compound 2]”, the values for the IC50 in series [7] and in [8] were > 100 µM and 22 µM, respectively. Moreover, the half-maximal effective concentration (EC50) in series [9] was 0.6 µM.

For the origin of these results see article PMC2725430 (Journal of medicinal chemistry, 2009).
